# Patent US10111874B2, “Combination therapies for treatment of cancer” (Araxes Pharma LLC, priority 2014, dated 2018)
# Molecular target: T1, KRAS G12C 1-169, his-tagged protein, GDP-loaded (Homo sapiens, UniProt P01116, G12C)
# T1 construct: KRAS G12C 1-169, his-tagged protein, GDP-loaded
# Assay: Biochemical assay: covalent binding to KRAS G12C analyzed by mass spectrometry; also: test concentration or dose not given here
# Conditions: compounds 48-246, measured at 2 h
# T1 sequence (P01116 1-169 isoform P01116-2 G12C): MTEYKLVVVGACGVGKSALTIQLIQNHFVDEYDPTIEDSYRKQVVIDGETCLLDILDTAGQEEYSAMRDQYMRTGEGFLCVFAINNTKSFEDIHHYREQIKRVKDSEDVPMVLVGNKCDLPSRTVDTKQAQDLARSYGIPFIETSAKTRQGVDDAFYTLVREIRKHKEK
row,Compound,Binding %
1,"C=CC(=O)N1CCN(c2ncnc3cc(-c4cc(F)ccc4F)c(Cl)cc23)CC1 [Compound I-113, 1-(4-(6-chloro-7-(2,5-difluorophenyl)quinazolin-4-yl)piperazin-1-yl)prop-2-en-1-one]",+++ (+++indicates binding activity greater than 50% and up to 75%)
2,"C=CC(=O)N1CCN(c2ncnc3cc(-c4ccc(Cl)cc4F)c(Cl)cc23)CC1 [Compound I-114, 1-(4-(6-chloro-7-(4-chloro-2-fluorophenyl)quinazolin-4-yl)piperazin-1-yl)prop-2-en-1-one]",+++ (+++indicates binding activity greater than 50% and up to 75%)
3,"C=CC(=O)N1CCN(c2ncnc3cc(-c4cc(Cl)ccc4F)c(Cl)cc23)CC1 [Compound I-115, 1-(4-(6-chloro-7-(5-chloro-2-fluorophenyl)quinazolin-4-yl)piperazin-1-yl)prop-2-en-1-one]",+++ (+++indicates binding activity greater than 50% and up to 75%)
4,"C=CC(=O)N1CCN(c2ncnc3cc(-c4ccccc4)c(Cl)cc23)CC1CO (centres unmarked) [Compound I-116, 1-(4-(6-chloro-7-phenylquinazolin-4-yl)-2-(hydroxymethyl)piperazin-1-yl)prop-2-en-1-one]",++ (++indicates binding activity greater than 25% and up to 50%)
5,"C=CC(=O)N1CCN(c2ncnc3cc(-c4ccc(Cl)cc4O)c(Cl)cc23)CC1 [Compound I-117, 1-(4-(6-chloro-7-(4-chloro-2-hydroxyphenyl)quinazolin-4-yl)piperazin-1-yl)prop-2-en-1-one]",+++ (+++indicates binding activity greater than 50% and up to 75%)
6,"C=CC(=O)N1CCN(c2ncnc3cc(-c4cc(Cl)ccc4O)c(Cl)cc23)CC1 [Compound I-118, 1-(4-(6-chloro-7-(5-chloro-2-hydroxyphenyl)quinazolin-4-yl)piperazin-1-yl)prop-2-en-1-one]",+++ (+++indicates binding activity greater than 50% and up to 75%)
7,"C=CC(=O)N1CCN(c2ncnc3cc(-c4ccc(F)cc4C(F)(F)F)c(Cl)cc23)CC1 [Compound I-119, 1-(4-(6-chloro-7-(4-fluoro-2-(trifluoromethyl)phenyl)quinazolin-4-yl)piperazin-1-yl)prop-2-en-1-one]",+++ (+++indicates binding activity greater than 50% and up to 75%)
8,"C=CC(=O)N1CCN(c2ncnc3cc(-c4ccccc4F)c(Cl)cc23)CC1C(N)=O (centres unmarked) [Compound I-120, 1-acryloyl-4-(6-chloro-7-(2-fluorophenyl)quinazolin-4-yl)piperazine-2-carboxamide]",+++ (+++indicates binding activity greater than 50% and up to 75%)
9,"C=CC(=O)N1CCN(c2ncnc3cc(-c4ccccc4C(F)(F)F)c(Cl)cc23)CC1C(N)=O (centres unmarked) [Compound I-121, 1-acryloyl-4-(6-chloro-7-(2-(trifluoromethyl)phenyl)quinazolin-4-yl)piperazine-2-carboxamide]",++++ (++++indicates binding activity greater than 75%)
10,"C=CC(=O)N1CCN(c2ncnc3cc(-c4cc(F)ccc4O)c(Cl)cc23)CC1 [Compound I-122, 1-(4-(6-chloro-7-(5-fluoro-2-hydroxyphenyl)quinazolin-4-yl)piperazin-1-yl)prop-2-en-1-one]",++ (++indicates binding activity greater than 25% and up to 50%)
11,"C=CC(=O)N1CCN(c2ncnc3cc(-c4cccc5ccccc45)c(Cl)cc23)CC1 [Compound I-123, 1-(4-(6-chloro-7-(naphthalen-1-yl)quinazolin-4-yl)piperazin-1-yl)prop-2-en-1-one]",++++ (++++indicates binding activity greater than 75%)
12,"C=CC(=O)N1CCN(c2ncnc3cc(-c4ccccc4C(F)(F)F)c(Cl)cc23)CC1C (centres unmarked) [Compound I-124, 1-(4-(6-chloro-7-(2-(trifluoromethyl)phenyl)quinazolin-4-yl)-2-methylpiperazin-1-yl)prop-2-en-1-one]",+++ (+++indicates binding activity greater than 50% and up to 75%)
13,"C=CC(=O)N1CCN(c2ncnc3cc(-c4ccccc4C(F)(F)F)c(Cl)cc23)CC1CC#N (centres unmarked) [Compound I-125, 2-(1-acryloyl-4-(6-chloro-7-(2-(trifluoromethyl)phenyl)quinazolin-4-yl)piperazin-2-yl)acetonitrile]",++++ (++++indicates binding activity greater than 75%)
14,"C=CC(=O)N1CCN(c2ncnc3cc(-c4ccccc4C4CC4)c(Cl)cc23)CC1 [Compound I-126, 1-(4-(6-chloro-7-(2-cyclopropylphenyl)quinazolin-4-yl)piperazin-1-yl)prop-2-en-1-one]",++++ (++++indicates binding activity greater than 75%)
15,C=CC(=O)N1CCN(c2c(C#N)cnc3cc(-c4ccccc4F)c(Cl)cc23)CC1 [Compound I-127],++++ (++++indicates binding activity greater than 75%)
16,"C=CC(=O)N1CCN(c2ncnc3cc(-c4cc(O)ccc4Cl)c(Cl)cc23)CC1 [Compound I-128, 1-(4-(6-chloro-7-(2-chloro-5-hydroxyphenyl)quinazolin-4-yl)piperazin-1-yl)prop-2-en-1-one]",+++ (+++indicates binding activity greater than 50% and up to 75%)

row,Compound,Binding %
1,"C=CC(=O)N1CCN(c2ncnc3cc(-c4cccc5ncoc45)c(Cl)cc23)CC1 [Compound I-129, 1-(4-(7-(benzo[d]oxazol-7-yl)-6-chloroquinazolin-4-yl)piperazin-1-yl)prop-2-en-1-one]",+ (+indicates binding activity from 5% to 25%)
2,"C=CC(=O)N1CCN(c2ncnc3cc(-c4cccc(C#N)c4)c(Cl)cc23)CC1 [Compound I-130, 3-(4-(4-acryloylpiperazin-1-yl)-6-chloroquinazolin-7-yl)benzonitrile]",+ (+indicates binding activity from 5% to 25%)
3,"C=CC(=O)N1CCN(c2ncnc3cc(-c4cccc(C(=O)N(C)C)c4F)c(Cl)cc23)CC1 [Compound I-131, 3-(4-(4-acryloylpiperazin-1-yl)-6-chloroquinazolin-7-yl)-2-fluoro-N,N-dimethylbenzamide]",+ (+indicates binding activity from 5% to 25%)
4,"C=CC(=O)N1CCN(c2ncnc3cc(-c4c(F)cccc4F)c(Cl)cc23)CC1 [Compound I-132, 1-(4-(6-chloro-7-(2,6-difluorophenyl)quinazolin-4-yl)piperazin-1-yl)prop-2-en-1-one]",+++ (+++indicates binding activity greater than 50% and up to 75%)
5,"C=CC(=O)N1CCN(c2ncnc3cc(-c4ccc(F)cc4O)c(Cl)cc23)CC1 [Compound I-133, 1-0(4-(6-chloro-7-(4-fluoro-2-hydroxyphenyl)quinazolin-4-yl)piperazin-1-yl)prop-2-en-1-one]",++ (++indicates binding activity greater than 25% and up to 50%)
6,"C=CC(=O)N1CCN(c2ncnc3cc(-c4ccccc4O)c(Cl)cc23)CC1C (centres unmarked) [Compound I-134, 1-(4-(6-chloro-7-(2-hydroxyphenyl)quinazolin-4-yl)-2-methylpiperazin-1-yl)prop-2-en-1-one]",++ (++indicates binding activity greater than 25% and up to 50%)
7,"C=CC(=O)N1CCN(c2ncnc3cc(-c4cccc5ncccc45)c(Cl)cc23)CC1 [Compound I-135, 1-(4-(6-chloro-7-(quinolin-5-yl)quinazolin-4-yl)piperazin-1-yl)prop-2-en-1-one]",+ (+indicates binding activity from 5% to 25%)
8,"C=CC(=O)N1CCN(c2ncnc3cc(-c4cccc5cnccc45)c(Cl)cc23)CC1 [Compound I-136, 1-(4-(6-chloro-7-(isoquinolin-5-yl)quinazolin-4-yl)piperazin-1-yl)prop-2-en-1-one]",++ (++indicates binding activity greater than 25% and up to 50%)
9,"C=CC(=O)N1CCN(c2ncnc3cc(-c4ccccc4F)c(C#N)cc23)CC1 [Compound I-137, 4-(4-acryloylpiperazin-1-yl)-7-(2-fluorophenyl)quinazoline-6-carbonitrile]",+ (+indicates binding activity from 5% to 25%)
10,"C=CC(=O)N1CCN(c2ncnc3cc(-c4c(O)cccc4F)c(Cl)cc23)CC1 [Compound I-138, 1-(4-(6-chloro-7-(2-fluoro-6-hydroxyphenyl)quinazolin-4-yl)piperazin-1-yl)prop-2-en-1-one]",++++ (++++indicates binding activity greater than 75%)
11,"C=CC(=O)N1CCN(c2ncnc3cc(-c4ccc(F)cc4F)c(Cl)cc23)CC1CC#N (centres unmarked) [Compound I-139, 2-(1-acryloyl-4-(6-chloro-7-(2,4-difluorophenyl)quinazolin-4-yl)piperazin-2-yl)acetonitrile]",++++ (++++indicates binding activity greater than 75%)
12,"C=CC(=O)N1CCN(c2ncnc3cc(-c4c(C)ccc5[nH]ncc45)c(Cl)cc23)CC1 [Compound I-140, 1-(4-(6-chloro-7-(5-methyl-1H-indazol-4-yl)quinazolin-4-yl)piperazin-1-yl)prop-2-en-1-one]",+++ (+++indicates binding activity greater than 50% and up to 75%)
13,"C=CC(=O)N1CCN(c2ncnc3cc(-c4cc(OC(F)(F)F)ccc4F)c(Cl)cc23)CC1 [Compound I-141, 1-(4-(6-chloro-7-(2-fluoro-5-(trifluoromethoxy)phenyl)quinazolin-4-yl)piperazin-1-yl)prop-2-en-1-one]",+ (+indicates binding activity from 5% to 25%)
14,"C=CC(=O)N1CCN(c2ncnc3cc(-c4cccc(C(=O)NC5CC5)c4)c(Cl)cc23)CC1 [Compound I-142, 3-(4-(4-acryloylpiperazin-1-yl)-6-chloroquinazolin-7-yl)-N-cyclopropylbenzamide]",+ (+indicates binding activity from 5% to 25%)
15,"C=CC(=O)N1CCN(c2ncnc3cc(-c4cc(C5(C#N)CC5)ccc4F)c(Cl)cc23)CC1 [Compound I-143, 1-(3-(4-(4-acryloylpiperazin-1-yl)-6-chloroquinazolin-7-yl)-4-fluorophenyl)cyclopropanecarbonitrile]",+++ (+++indicates binding activity greater than 50% and up to 75%)
16,"C=CC(=O)N1CCN(c2ncnc3cc(-c4ccc5[nH]ncc5c4)c(Cl)cc23)CC1 [Compound I-144, 1-(4-(6-chloro-7-(1H-indazol-5-yl)quinazolin-4-yl)piperazin-1-yl)prop-2-en-1-one]",+ (+indicates binding activity from 5% to 25%)
